30 molecules from patent US7378375B1, “Substituted pyridine herbicides” (Syngenta Crop Protection, Inc., priority 2000, dated 2008) can be followed below.

In series [1] the test system is Monocotyledonous and dicotyledonous test plants. As to the kind of experiment: Post-emergence herbicidal action, greenhouse pot test, sprayed at the 2- to 3-leaf stage, 9-level rating after 2 to 3 weeks. Format: in vivo. The conditions noted are these: 250 g/ha, rated after 2 to 3 weeks, 9-level scale. The essentials:
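Plants grown in standard soil in pots; test substances sprayed at the 2- to 3-leaf stage at optimum dosage (500 l water/ha) as aqueous suspension or emulsion from formulated concentrates. Plants then kept in the greenhouse under optimum conditions; rated after 2 to 3 weeks on a 9-level scale (1=complete damage, 9=no effect).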

Series [2] has the same test system. In words: Herbicidal action before emergence of the plants (pre-emergence action), greenhouse pot test, 9-level rating after 4 weeks. Type of series: in vivo. Particulars: 250 g/ha, rated after 4 weeks, 9-level scale. The essentials: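 Compounds applied pre-emergence as a spray (500 l water/ha) of aqueous suspension or emulsion onto soil immediately after sowing mono- and dicot species in pots. Greenhouse-grown; damage rated after 4 weeks on a 9-level scale (1=complete damage, 9=no effect).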

The term melting point denotes the temperature of the solid-liquid transition. For `C#CCOCc1nc(C(F)(F)F)ccc1C(=O)C1=C(O)C2CCC(C2)C1=O` (stereo not shown) [1.016], the melting point lay in the range of 71 to 74 °C.
The same measure, in the same setting: with `O=C(OCCOCc1nc(C(F)(F)F)ccc1C(=O)C1=C(OC(=O)c2ccccc2)C2CCC(C2)C1=O)c1ccccc1` (stereo not shown) [1.055] the figure was 96 to 98 °C; with `COCCOCc1nc(C(F)(F)F)ccc1C(=O)C1=C(O)CC(C)CC1=O` (stereo not shown) [1.082], 76 to 78 °C; with `O=C(c1ccc(C(F)(F)F)nc1COCC1CCCO1)C1C(=O)C2CCC(C2)C1=O` (stereo not shown) [1.073], 46 to 47 °C.
Same read-out and setting: for `COCc1nc(C(F)(F)F)ccc1C(=O)c1cnn(C)c1O` [1.019] the value was 32 to 34 °C; for `COCCOCc1nc(C(F)(F)F)ccc1C(=O)C1C(=O)CCC2(CC2)C1=O` (stereo not shown) [1.070], 40 to 42 °C; for `CC(=O)OCCOCc1nc(C(F)(F)F)ccc1C(=O)C1=C(O)C2CCC(C2)C1=O` (stereo not shown) [1.050], 90 to 93 °C.
Same read-out and setting: for `O=C(c1ccc(C(F)(F)F)nc1COCCCl)C1C(=O)C2CCC(C2)C1=O` (stereo not shown) [1.080] the value was 63 to 64 °C; for `CC(=O)OCc1nc(C(F)(F)F)ccc1C(=O)C1=C(O)C2CCC(C2)C1=O.[K+]` (stereo not shown), 145 to 150 °C.
`CC1(C)C(=O)C(C(=O)c2ccc(C(F)(F)F)nc2COCc2ccccc2)C(=O)C(C)(C)C1=O` [1.076] showed a melting point of 75 to 76 °C.
`COC(=O)COCc1nc(C(F)(F)F)ccc1C(=O)C1=C(O)C2CCC(C2)C1=O` (stereo not shown) [1.031] registered a melting point of 106 to 107 °C.
Take `COCOCc1nc(C(F)(F)F)ccc1C(=O)C1=C(O)C2CCC(C2)C1=O` (stereo not shown) [1.017]: the melting point was 95 to 98 °C.
On the same count and under the same terms, with `CCOCc1nc(C(F)(F)F)ccc1C(=O)c1cnn(C)c1O` [1.020] the figure was 32 to 33 °C; with `CCCOCCOCc1nc(C(F)(F)F)ccc1C(=O)C1=C(O)C2CCC(C2)C1=O` (stereo not shown) [1.052], 41 to 43 °C; with `CN(Cc1nc(C(F)(F)F)ccc1C(=O)C1=C(O)C2CCC(C2)C1=O)S(C)(=O)=O` (stereo not shown) [1.090], 149 to 150 °C.
Still for that read-out and setting: with `O=C(C1=C(O)C2CCC(C2)C1=O)c1ccc(C(F)(F)F)nc1COCc1ccccc1` (stereo not shown) [1.068] the figure was 68 to 69 °C; with `CCOCCOCc1nc(C(F)(F)F)ccc1C(=O)c1cnn(C)c1O` [1.022], 38 to 39 °C; with `C=CCOCc1nc(C(F)(F)F)ccc1C(=O)C1=C(O)C2CCC(C2)C1=O` (stereo not shown) [1.018], 53 to 55 °C.
Same read-out and setting: with `CN(Cc1nc(C(F)(F)F)ccc1C(=O)c1cnn(C)c1O)S(C)(=O)=O` [1.091] the figure was 110 to 112 °C; with `O=C(C1=C(O)C2CCC(C2)C1=O)c1ccc(C(F)(F)F)nc1COCC1CO1` (stereo not shown) [1.015], 54 to 56 °C.
Consider `O=C(C1=C(O)C2CCC(C2)C1=O)c1ccc(C(F)(F)F)nc1COC1COC1` (stereo not shown) [1.065], for which the melting point fell in the range of 102 to 105 °C.
On the same count and under the same terms, for `COc1ccccc1OCc1nc(C(F)(F)F)ccc1C(=O)C1=C(O)C2CCC(C2)C1=O` (stereo not shown) [1.028] the value was 113 to 115 °C; for `COCCOCc1nc(C(F)(F)F)ccc1C(=O)C1=C(O)C(C)(C)C(=O)C(C)(C)C1=O` [1.012], 99 to 100 °C.
The same measure, in the same setting: for `COCc1nc(C(F)(F)F)ccc1C(=O)c1c(C)nn(C)c1O` [1.001] the value was 138 to 140 °C; for `O=C(C1=C(O)C2CCC(C2)C1=O)c1ccc(C(F)(F)F)nc1COCCCOCc1ccccc1` (stereo not shown) [1.069], 78 to 80 °C; for `O=C(C1=C(O)C2CCC(C2)C1=O)c1ccc(C(F)(F)F)nc1COCCOCC(F)(F)F` (stereo not shown) [1.066], 40 to 44 °C.
As for `CCN(CC)CC.COCCOCc1nc(C(F)(F)F)ccc1C(=O)C1=C(O)C2CCC(C2)C1=O` (stereo not shown) [A10-B52 (Et3NH+)], in series [1], the “Post-emergence action rating, Abutilon” value is recorded as 2; the “Post-emergence action rating, Amaranth” value was found to be 2; the “Post-emergence action rating, Chenop.” value came out at 1; the “Post-emergence action rating, Digitaria” value is listed as 2. In series [1], the “Post-emergence action rating, Echino.” value was found to be 2; the “Post-emergence action rating, Ipopur.” value was 2; the “Post-emergence action rating, Panicum” value was found to be 2; the “Post-emergence action rating, Xanth.” value stood at 2. Also, in series [2], the “Pre-emergence action rating, Abutilon” value came out at 1; the “Pre-emergence action rating, Amaranthus” value was determined as 1; the “Pre-emergence action rating, Digitaria” value is on record as 1; the “Pre-emergence action rating, Echino.” value amounted to 2. The “Pre-emergence action rating, Panicum” value in series [2] is recorded as 1. Also, the “Pre-emergence action rating, Chenop.” value in series [2] (Chenop.) amounted to 1.
On to `O=C(C1=C(O)C2CCC(C2)C1=O)c1ccc(C(F)(F)F)nc1COC1CCCCO1` (stereo not shown) [A28-B52], for which, in series [1], the “Post-emergence action rating, Abutilon” value was determined as 2; the “Post-emergence action rating, Amaranth” value came out at 1; the “Post-emergence action rating, Chenop.” value worked out at 1; the “Post-emergence action rating, Digitaria” value is recorded as 2. For the same molecule, in series [1], the “Post-emergence action rating, Echino.” value is recorded as 2; the “Post-emergence action rating, Ipopur.” value turned out to be 4; the “Post-emergence action rating, Panicum” value was found to be 1; the “Post-emergence action rating, Xanth.” value is listed as 3. Moreover, in series [2], the “Pre-emergence action rating, Abutilon” value worked out at 2; the “Pre-emergence action rating, Amaranthus” value was determined as 3; the “Pre-emergence action rating, Digitaria” value is given as 2; the “Pre-emergence action rating, Echino.” value was found to be 2. In addition, the “Pre-emergence action rating, Panicum” value in series [2] was 1.
On to `CCN(CC)CC.O=C(C1=C(O)C2CCC(C2)C1=O)c1ccc(C(F)(F)F)nc1COC1CCCCO1` (stereo not shown) [A28-B52 (Et3NH+)], for which, in series [1], the “Post-emergence action rating, Abutilon” value worked out at 2; the “Post-emergence action rating, Amaranth” value is listed as 2; the “Post-emergence action rating, Chenop.” value worked out at 1; the “Post-emergence action rating, Digitaria” value came to 2. In series [1], the “Post-emergence action rating, Echino.” value was 2; the “Post-emergence action rating, Ipopur.” value is given as 2; the “Post-emergence action rating, Panicum” value was found to be 1; the “Post-emergence action rating, Xanth.” value is listed as 3. Moreover, in series [2], the “Pre-emergence action rating, Abutilon” value is on record as 3; the “Pre-emergence action rating, Amaranthus” value came out at 1; the “Pre-emergence action rating, Digitaria” value is 2; the “Pre-emergence action rating, Echino.” value was 2. The “Pre-emergence action rating, Panicum” value in series [2] amounted to 1.
On to `CC(C)(C)C(=O)OC1=C(C(=O)c2ccc(C(F)(F)F)nc2COCCO)C(=O)C2CCC1C2` (stereo not shown) [1.059], for which the melting point was in the range of 79 to 81 °C.
